Values quoted from earlier work in US9622975B2, “Pharmaceutical composition” (Novartis AG, priority 2005, dated 2017).

Experiments:
[1] = especially in the alkaline conditions of the intestine
[2] = in vivo

Row | water solubility [1] | absorbed by the gastro-intestinal tract [2] | Structure (SMILES)
1 | very water soluble |  | O=C(O)CCCCCCCNC(=O)c1cc(Cl)ccc1O [Example 5-CNAC, N-(5-chlorosalicyloyl)-8-aminocaprylic acid]
2 | very water soluble |  | O=C(O)CCCCCCCNC(=O)c1ccccc1O [SNAC, N-(8-[2-hydroxybenzoyl]amino) caprylic acid]
3 |  | greater than 90% | O=C(O)CCCCCCCCCNC(=O)c1ccccc1O [SNAD, N-(10-[2-hydroxybenzoyl]amino) decanoic acid]
